From the CheMixHub ionic liquid set
Where “and” joins values, the source holds several entries; their conditions need not be identical. Equal entries are not always repeated.

Experiment: xn = mol fraction of the nth substance listed

CCCC[n+]1ccn(C)c1.O=[N+]([O-])[O-] + O + NCCO
100 kPa
Details	viscosity [mPa·s]
303 K, x1 = 0.2218, x2 = 0.4128	15.07
303 K, x1 = 0.2959, x2 = 0.2542	17.98
308 K, x1 = 0.2218, x2 = 0.4128	12.54
308 K, x1 = 0.2959, x2 = 0.2542	14.93
313 K, x1 = 0.01284, x2 = 0.8603	2.342
313 K, x1 = 0.02953, x2 = 0.8245	2.9
313 K, x1 = 0.05213, x2 = 0.7761	3.701
313 K, x1 = 0.08442, x2 = 0.707	4.94
313 K, x1 = 0.1343, x2 = 0.6001	6.9
313 K, x1 = 0.2218, x2 = 0.4128	10.58
313 K, x1 = 0.2959, x2 = 0.2542	12.55
313 K, x1 = 0.4146, x2 = 0	17.77
318 K, x1 = 0.2218, x2 = 0.4128	9.05
318 K, x1 = 0.2959, x2 = 0.2542	10.69
323 K, x1 = 0.2218, x2 = 0.4128	7.81
323 K, x1 = 0.2959, x2 = 0.2542	9.2

CCCCCCCC[n+]1ccccc1.O=S(=O)([N-]S(=O)(=O)C(F)(F)F)C(F)(F)F + CCCCOC(C)=O
Details	electrical conductivity [S/m]
298.15 K, 100 kPa, x2 = 0.6824	0.371

CCCC[n+]1ccn(C)c1.O=[N+]([O-])[O-] + CCCC[n+]1ccn(C)c1.[Cl-]
Details	viscosity [mPa·s]
293 K, 101 kPa, x2 = 0.2549	223

CCCC[n+]1ccn(C)c1.O=[N+]([O-])[O-] + CCCO
101 kPa
Details	viscosity [mPa·s]
288.15 K, x2 = 0.121	176
288.15 K, x2 = 0.471	34.53
293.15 K, x2 = 0.673	11.32
298.15 K, x2 = 0.673	9.79
308.15 K, x2 = 0.471	16.82
313.15 K, x2 = 0.364	21.01
318.15 K, x2 = 0.471	12.54
318.15 K, x2 = 0.554	9.21
323.15 K, x2 = 0.121	31.91
323.15 K, x2 = 0.471	10.97
328.15 K, x2 = 0.471	9.68
328.15 K, x2 = 0.755	3.24
328.15 K, x2 = 0.857	2.14
333.15 K, x2 = 0.554	6.37

CC[n+]1ccn(C)c1.[Br-] + C[NH2+]CCC=C1c2ccccc2CCc2ccccc21.[Cl-] + O
viscosity [mPa·s], 100 kPa
Details	288.15 K	298.15 K	308.15 K	318.15 K
x2 = 0, x1 = 0.0001802	1.141	0.911	0.744	0.627
x2 = 0, x1 = 0.0007203	1.147	0.916	0.748	0.632
x2 = 0, x1 = 0.00126	1.152	0.923	0.754	0.639

OC[C@H]1O[C@@H](O[C@H]2[C@H](O)[C@@H](O)[C@@H](O)O[C@@H]2CO)[C@H](O)[C@@H](O)[C@H]1O + CCCC[N+](C)(CCCC)CCCC.[Cl-] + O
viscosity, 100 kPa
Details	293.15 K	298.15 K	303.15 K	308.15 K	313.15 K
x1 = 0.0003513, x2 = 0	1.018 mPa·s	0.904 mPa·s	0.804 mPa·s	0.725 mPa·s	0.658 mPa·s
x1 = 0.0003543, x2 = 0.000702	1.043 mPa·s	0.929 mPa·s	0.828 mPa·s	0.745 mPa·s	0.679 mPa·s
x1 = 0.0003546, x2 = 0.0003601	1.027 mPa·s	0.917 mPa·s	0.819 mPa·s	0.735 mPa·s	0.667 mPa·s
x1 = 0.0003558, x2 = 0.001062	1.057 mPa·s	0.948 mPa·s	0.843 mPa·s	0.757 mPa·s	0.696 mPa·s
x1 = 0.0003573, x2 = 0.001421	1.069 mPa·s	0.961 mPa·s	0.856 mPa·s	0.77 mPa·s	0.706 mPa·s
x1 = 0.0007059, x2 = 0	1.038 mPa·s	0.919 mPa·s	0.812 mPa·s	0.731 mPa·s	0.662 mPa·s
x1 = 0.000709, x2 = 0.00036	1.049 mPa·s	0.937 mPa·s	0.834 mPa·s	0.747 mPa·s	0.673 mPa·s
x1 = 0.0007119, x2 = 0.0007018	1.067 mPa·s	0.948 mPa·s	0.843 mPa·s	0.758 mPa·s	0.689 mPa·s
x1 = 0.0007149, x2 = 0.001061	1.081 mPa·s	0.969 mPa·s	0.86 mPa·s	0.771 mPa·s	0.708 mPa·s
x1 = 0.000718, x2 = 0.001421	1.094 mPa·s	0.984 mPa·s	0.876 mPa·s	0.785 mPa·s	0.72 mPa·s
x1 = 0.001058, x2 = 0	1.059 mPa·s	0.936 mPa·s	0.827 mPa·s	0.741 mPa·s	0.671 mPa·s
x1 = 0.001063, x2 = 0.0003599	1.07 mPa·s	0.952 mPa·s	0.848 mPa·s	0.758 mPa·s	0.681 mPa·s
x1 = 0.001067, x2 = 0.0007015	1.088 mPa·s	0.966 mPa·s	0.857 mPa·s	0.77 mPa·s	0.698 mPa·s
x1 = 0.001072, x2 = 0.001061	1.106 mPa·s	0.989 mPa·s	0.877 mPa·s	0.785 mPa·s	0.72 mPa·s
x1 = 0.001077, x2 = 0.00142	1.118 mPa·s	1.003 mPa·s	0.891 mPa·s	0.799 mPa·s	0.733 mPa·s
x1 = 0.001413, x2 = 0	1.079 mPa·s	0.955 mPa·s	0.843 mPa·s	0.752 mPa·s	0.68 mPa·s
x1 = 0.001419, x2 = 0.0003598	1.093 mPa·s	0.971 mPa·s	0.86 mPa·s	0.77 mPa·s	0.694 mPa·s
x1 = 0.001425, x2 = 0.0007013	1.11 mPa·s	0.986 mPa·s	0.872 mPa·s	0.784 mPa·s	0.709 mPa·s
x1 = 0.001431, x2 = 0.001061	1.127 mPa·s	1.006 mPa·s	0.893 mPa·s	0.8 mPa·s	0.734 mPa·s
x1 = 0.001437, x2 = 0.00142	–	1.14 mPa·s	1.02 mPa·s	0.909 mPa·s	0.747 mPa·s and 0.816 mPa·s
x1 = 0.001765, x2 = 0	1.097 mPa·s	0.971 mPa·s	0.858 mPa·s	0.764 mPa·s	0.689 mPa·s
x1 = 0.001774, x2 = 0.0003596	1.118 mPa·s	0.987 mPa·s	0.879 mPa·s	0.783 mPa·s	0.705 mPa·s
x1 = 0.00178, x2 = 0.000701	1.133 mPa·s	1.003 mPa·s	0.889 mPa·s	0.797 mPa·s	0.719 mPa·s
x1 = 0.001787, x2 = 0.00106	1.15 mPa·s	1.024 mPa·s	0.909 mPa·s	0.814 mPa·s	0.745 mPa·s
x1 = 0.001795, x2 = 0.001419	–	1.164 mPa·s	1.038 mPa·s	0.923 mPa·s	0.76 mPa·s and 0.829 mPa·s
